Assay results from US20090035394A1, “USE OF DNA-PK INHIBITION TO SENSITISE ATM DEFICIENT CANCERS TO DNA-DAMAGING CANCER THERAPIES” (priority 2005, published 2009).

Tests used:
pEBS7 (ATM-null) cells = assay: Chemopotentiation, sulforhodamine B growth assay in 96 well plates; type: cell-based, human; details: for % survival / Avg (absorbance at 564 nm): no inhibitor, pEBS7; for PF50 (potentiation factor at 50% cell kill): damaging agent without / with KU-0060648 (0.5 μM), pEBS7 (ATM-null)
Method: (§1) The A-T fibroblast AT221JE-T cells (pEBS7, herein referred to as ATM-null cells) and the trans-complemented ATM+/+ (pEBS7-YZ5, herein referred to as ATM-competent cells) were grown in DMEM+20% FBS PSG and 100 ug/ml hygromycin. These cells are immortalised fibroblasts from an A-T patient which were transfected with pEBS7-YZ5 vector coding for full length ATM and the hygromycin resistance marker or pEBS7 vector, coding for the hygromycin resistance marker only. (Ziv Y et al (1997) Oncogene 15, 159-67)
(§2) Following a 4-hour incubation to allow cell adherence, 5 μl DNA-PKcS inhibitor KU-0060648 (final concentration 0.5 μM) or DMSO/PBS equivalent was added. After a further 1 hour incubation, 5 μl of chemotherapeutic drug was added per well (see table 1). Drugs were removed after 16 hours and 150 μl fresh medium added per well. After 24h, one plate for each cell line was fixed and stained to account for background differences between the lines. Five days after seeding, the medium was aspirated from the wells of the remaining assay plates and 100 μl ice cold 10% TCA added for 30 minutes at 4° C. The wells were then washed four times with tap water and 50 μl 0.4% sulforhodamine B in 1% acetic acid added per well. After 15 minutes incubation at room temperature, excess stain was washed from the wells with 1% acetic acid. 100 μl […] pH6.8 was then added per well, the plates shaken to resuspend the stain and the absorbance at 564 nm determined.

[1] = tested on: pEBS7-YZ5 (ATM-competent, ATM+/+) cells; assay: as above; type: cell-based, human; details: for % survival / Avg (absorbance at 564 nm): no inhibitor, pEBS7-YZ; for PF50 (potentiation factor at 50% cell kill): damaging agent without / with KU-0060648 (0.5 μM), pEBS7-YZ (ATM-competent)
Method: as §1, §2

[2] = Con: doxorubicin 0.01 (unit not given)
[3] = Con: doxorubicin 0.025 (unit not given)
[4] = Con: doxorubicin 0.05 (unit not given)
[5] = Con: doxorubicin 0.075 (unit not given)
[6] = Con: doxorubicin 0.1 (unit not given)
[7] = Con: doxorubicin 0.25 (unit not given)
[8] = Con: doxorubicin 0.5 (unit not given)
[9] = Con: doxorubicin 0.75 (unit not given)
[10] = Con: doxorubicin 1 (unit not given)
[11] = Con: doxorubicin 2.5 (unit not given)
[12] = Con: doxorubicin 5 (unit not given)
[13] = Con: etoposide 0.01 (μg/ml per Table 1)
[14] = Con: etoposide 0.025 (μg/ml per Table 1)
[15] = Con: etoposide 0.05 (μg/ml per Table 1)
[16] = Con: etoposide 0.075 (μg/ml per Table 1)
[17] = Con: etoposide 0.1 (μg/ml per Table 1)
[18] = Con: etoposide 0.25 (μg/ml per Table 1)
[19] = Con: etoposide 0.5 (μg/ml per Table 1)
[20] = Con: etoposide 0.75 (μg/ml per Table 1)
[21] = Con: etoposide 1 (μg/ml per Table 1)
[22] = Con: etoposide 2.5 (μg/ml per Table 1)
[23] = Con: etoposide 5 (μg/ml per Table 1)

Compound: COc1cccc2c1C(=O)c1c(O)c3c(c(O)c1C2=O)C[C@@](O)(C(=O)CO)C[C@@H]3O[C@H]1C[C@H](N)[C@H](O)[C@H](C)O1 [Doxorubicin, doxorubicin, reference compound]
- % survival (pEBS7 (ATM-null) cells; [2]): 111.8%
- Avg (absorbance at 564 nm) (pEBS7 (ATM-null) cells; [2]): 1.46
- % survival (pEBS7 (ATM-null) cells; [3]): 117.0%
- Avg (absorbance at 564 nm) (pEBS7 (ATM-null) cells; [3]): 1.53
- % survival (pEBS7 (ATM-null) cells; [4]): 106.4%
- Avg (absorbance at 564 nm) (pEBS7 (ATM-null) cells; [4]): 1.39
- % survival (pEBS7 (ATM-null) cells; [5]): 113.1%
- Avg (absorbance at 564 nm) (pEBS7 (ATM-null) cells; [5]): 1.47
- % survival (pEBS7 (ATM-null) cells; [6]): 111.2%
- Avg (absorbance at 564 nm) (pEBS7 (ATM-null) cells; [6]): 1.45
- % survival (pEBS7 (ATM-null) cells; [7]): 63.8%
- Avg (absorbance at 564 nm) (pEBS7 (ATM-null) cells; [7]): 0.83
- % survival (pEBS7 (ATM-null) cells; [8]): 37.3%
- Avg (absorbance at 564 nm) (pEBS7 (ATM-null) cells; [8]): 0.49
- % survival (pEBS7 (ATM-null) cells; [9]): 12.6%
- Avg (absorbance at 564 nm) (pEBS7 (ATM-null) cells; [9]): 0.16
- % survival (pEBS7 (ATM-null) cells; [10]): −0.9%
- Avg (absorbance at 564 nm) (pEBS7 (ATM-null) cells; [10]): −0.01
- % survival (pEBS7 (ATM-null) cells; [11]): −2.6%
- Avg (absorbance at 564 nm) (pEBS7 (ATM-null) cells; [11]): −0.03
- % survival (pEBS7 (ATM-null) cells; [12]): −3.6%
- Avg (absorbance at 564 nm) (pEBS7 (ATM-null) cells; [12]): −0.05
- PF50 (potentiation factor at 50% cell kill) (pEBS7 (ATM-null) cells): 2.3
- % survival [1, 2]: 88.3%
- Avg (absorbance at 564 nm) [1, 2]: 1.43
- % survival [1, 3]: 89.4%
- Avg (absorbance at 564 nm) [1, 3]: 1.45
- % survival [1, 4]: 87.3%
- Avg (absorbance at 564 nm) [1, 4]: 1.42
- % survival [1, 5]: 94.1%
- Avg (absorbance at 564 nm) [1, 5]: 1.53
- % survival [1, 6]: 103.9%
- Avg (absorbance at 564 nm) [1, 6]: 1.69
- % survival [1, 7]: 95.3%
- Avg (absorbance at 564 nm) [1, 7]: 1.55
- % survival [1, 8]: 53.4%
- Avg (absorbance at 564 nm) [1, 8]: 0.87
- % survival [1, 9]: 33.2%
- Avg (absorbance at 564 nm) [1, 9]: 0.54
- % survival [1, 10]: 8.8%
- Avg (absorbance at 564 nm) [1, 10]: 0.14
- % survival [1, 11]: −1.7%
- Avg (absorbance at 564 nm) [1, 11]: −0.03
- % survival [1, 12]: −2.6%
- Avg (absorbance at 564 nm) [1, 12]: −0.04
- PF50 (potentiation factor at 50% cell kill) [1]: 1.5

Compound: COc1cc([C@@H]2c3cc4c(cc3[C@@H](O[C@@H]3O[C@@H]5CO[C@@H](C)O[C@H]5[C@H](O)[C@H]3O)[C@H]3COC(=O)[C@H]23)OCO4)cc(OC)c1O [Etoposide, etoposide, reference compound]
- % survival (pEBS7 (ATM-null) cells; [13]): 84.6%
- Avg (absorbance at 564 nm) (pEBS7 (ATM-null) cells; [13]): 1.38
- % survival (pEBS7 (ATM-null) cells; [14]): 84.9%
- Avg (absorbance at 564 nm) (pEBS7 (ATM-null) cells; [14]): 1.38
- % survival (pEBS7 (ATM-null) cells; [15]): 89.0%
- Avg (absorbance at 564 nm) (pEBS7 (ATM-null) cells; [15]): 1.45
- % survival (pEBS7 (ATM-null) cells; [16]): 90.8%
- Avg (absorbance at 564 nm) (pEBS7 (ATM-null) cells; [16]): 1.48
- % survival (pEBS7 (ATM-null) cells; [17]): 80.6%
- Avg (absorbance at 564 nm) (pEBS7 (ATM-null) cells; [17]): 1.31
- % survival (pEBS7 (ATM-null) cells; [18]): 66.8%
- Avg (absorbance at 564 nm) (pEBS7 (ATM-null) cells; [18]): 1.09
- % survival (pEBS7 (ATM-null) cells; [19]): 53.0%
- Avg (absorbance at 564 nm) (pEBS7 (ATM-null) cells; [19]): 0.86
- % survival (pEBS7 (ATM-null) cells; [20]): 15.8%
- Avg (absorbance at 564 nm) (pEBS7 (ATM-null) cells; [20]): 0.26
- % survival (pEBS7 (ATM-null) cells; [21]): 2.5%
- Avg (absorbance at 564 nm) (pEBS7 (ATM-null) cells; [21]): 0.04
- % survival (pEBS7 (ATM-null) cells; [22]): 1.2%
- Avg (absorbance at 564 nm) (pEBS7 (ATM-null) cells; [22]): 0.02
- % survival (pEBS7 (ATM-null) cells; [23]): −1.6%
- Avg (absorbance at 564 nm) (pEBS7 (ATM-null) cells; [23]): −0.03
- PF50 (potentiation factor at 50% cell kill) (pEBS7 (ATM-null) cells): 6.5
- % survival [1, 13]: 103.9%
- Avg (absorbance at 564 nm) [1, 13]: 1.74
- % survival [1, 14]: 93.1%
- Avg (absorbance at 564 nm) [1, 14]: 1.56
- % survival [1, 15]: 94.1%
- Avg (absorbance at 564 nm) [1, 15]: 1.58
- % survival [1, 16]: 96.6%
- Avg (absorbance at 564 nm) [1, 16]: 1.62
- % survival [1, 17]: 104.2%
- Avg (absorbance at 564 nm) [1, 17]: 1.75
- % survival [1, 18]: 95.8%
- Avg (absorbance at 564 nm) [1, 18]: 1.60
- % survival [1, 19]: 95.0%
- Avg (absorbance at 564 nm) [1, 19]: 1.59
- % survival [1, 20]: 75.1%
- Avg (absorbance at 564 nm) [1, 20]: 1.26
- % survival [1, 21]: 32.4%
- Avg (absorbance at 564 nm) [1, 21]: 0.54
- % survival [1, 22]: 39.0%
- Avg (absorbance at 564 nm) [1, 22]: 0.65
- % survival [1, 23]: 21.7%
- Avg (absorbance at 564 nm) [1, 23]: 0.36
- PF50 (potentiation factor at 50% cell kill) [1]: 1.7
